Among the data in ChEMBL document CHEMBL1148527, “Structure-based design of spiro-oxindoles as potent, specific small-molecule inhibitors of the MDM2-p53 interaction” (J Med Chem, 2006) are IC50 values, retold here.

Experiment [1] addresses Apoptosis regulator Bcl-2 (Homo sapiens, UniProt P10415). The experiment is described as follows: Displacement of Flu-Bid from human recombinant Bcl2 receptor.
A further experiment deals with Bcl-2-like protein 1 (Homo sapiens, UniProt Q07817). The experiment is described as follows: Displacement of Flu-Bid from human recombinant Bcl-xL receptor.
Sequence of Bcl-2-like protein 1 (Q07817 whole entry): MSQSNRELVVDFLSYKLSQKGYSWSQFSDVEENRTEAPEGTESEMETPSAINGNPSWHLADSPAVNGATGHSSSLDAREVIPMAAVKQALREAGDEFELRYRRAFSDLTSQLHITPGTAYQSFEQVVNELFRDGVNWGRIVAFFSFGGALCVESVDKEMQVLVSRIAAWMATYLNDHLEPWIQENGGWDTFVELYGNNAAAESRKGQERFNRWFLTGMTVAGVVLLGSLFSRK

Sequence of Apoptosis regulator Bcl-2 (P10415 whole entry): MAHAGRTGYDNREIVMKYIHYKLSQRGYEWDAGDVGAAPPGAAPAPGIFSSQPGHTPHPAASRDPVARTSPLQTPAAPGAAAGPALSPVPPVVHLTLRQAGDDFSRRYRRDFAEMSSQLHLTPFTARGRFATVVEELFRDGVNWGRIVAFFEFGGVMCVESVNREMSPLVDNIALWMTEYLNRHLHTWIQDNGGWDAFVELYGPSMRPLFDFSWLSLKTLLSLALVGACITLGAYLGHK

As a reminder, the IC50 is the concentration that inhibits the measured activity by half. Turning to `CC(C)(C)C[C@H]1N[C@@H](C(=O)NCCN2CCOCC2)[C@H](c2cccc(Cl)c2F)[C@@]12C(=O)Nc1cc(Cl)ccc12`, the IC50 (in experiment [1]; on Bcl-2-like protein 1) was over 50 µM in each case.
